Reference: patent US6727244B2, “Mammalian metabolites of a tachykinin receptor antagonist” (Merck & Co., Inc., priority 2000, dated 2004)

Test: oxidative metabolism in liver microsomes from humans
Format: in vitro ADME
Conditions: human liver microsomes, 15 min incubation
Experimental: All liver microsomal and cytosolic fractions were prepared using the following procedure. Thawed livers were homogenized with 2 volumes of 50 mM Tris-buffer (pH 7.5) containing 1.15% KCl. For microsomal and cytosolic preparations, the homogenate was centrifuged for 20 min at 9,000×g and the resulting supernatant was centrifuged for 60 min at 105,000×g. The resulting cytosolic fractions were re-centrifuged at 105,000×g for 60 min. Fractions of cytosol were aliquoted into small tubes and stored at −70° C. Subsequently, the microsomal pellets were washed with 10 mM EDTA containing 1.15% KCl and were centrifuged at 105,000×g for 60 min. Washed microsomes were resuspended in 10 mM potassium phosphate buffer (pH 7.4) containing 250 mM sucrose, aliquoted into small tubes, and stored at −70° C. Protein concentrations were determined by a modified Lowry assay (Smith et al., 1985). The specific cytochrome P450 content in each microsomal preparation was measured as described by Omura and Sato, J. Biol. Chem. 239, 2370-2378 (1964). […]
Method A was conducted on a Shimadzu HPLC system (Shimadzu Scientific Instruments Inc., Columbia Md.). The parent compounds and their metabolites were monitored directly using a radiometric detector (INUS Systems Inc. Tampa, Fla.) and Ultima-Flow M (Packard Instrument Co., Meridan Conn.) as scintillant at a flow rate of 3 mL/min. […]

- parent compound remained after incubation: ~50%
Compound: C[C@@H](O[C@H]1OCCN[C@H]1c1ccc(F)cc1)c1cc(C(F)(F)F)cc(C(F)(F)F)c1 [Metabolite M-1, (2R,3S)-2-[(1R)-1-[3,5-bis(trifluoromethyl)phenyl]ethoxy]-3-(4-fluorophenyl)morpholine]
